The record followed here is US10670605B2, “Cysteine reactive probes and uses thereof” (The Scripps Research Institute, priority 2015, dated 2020).

Test in all cases: Competitive isoTOP-ABPP in situ (fragment-treated cells)
What all share (format): cell-based

The target of test [1] is T1, cysteines in MDA-MB-231 and Ramos cells (Homo sapiens, UniProt O14879).
T1 sequence (O14879 1-490): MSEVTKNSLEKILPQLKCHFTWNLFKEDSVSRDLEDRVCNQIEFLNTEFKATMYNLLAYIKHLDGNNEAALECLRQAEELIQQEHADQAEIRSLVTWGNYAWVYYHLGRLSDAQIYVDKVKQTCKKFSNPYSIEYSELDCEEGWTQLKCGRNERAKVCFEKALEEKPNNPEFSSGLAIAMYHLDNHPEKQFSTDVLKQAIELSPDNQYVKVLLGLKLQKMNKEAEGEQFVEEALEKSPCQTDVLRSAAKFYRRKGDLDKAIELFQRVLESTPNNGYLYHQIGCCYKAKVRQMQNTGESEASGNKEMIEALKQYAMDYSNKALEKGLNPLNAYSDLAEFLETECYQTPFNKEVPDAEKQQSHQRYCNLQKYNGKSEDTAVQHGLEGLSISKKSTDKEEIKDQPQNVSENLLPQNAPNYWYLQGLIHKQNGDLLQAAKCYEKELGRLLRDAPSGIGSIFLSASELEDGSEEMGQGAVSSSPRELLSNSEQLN
The conditions noted are these: 200 μM, insitu, 231.

The target of test [2] is T2, cysteines in MDA-MB-231 and Ramos cells (Homo sapiens, UniProt Q9NYL9).
T2 sequence (Q9NYL9 1-352): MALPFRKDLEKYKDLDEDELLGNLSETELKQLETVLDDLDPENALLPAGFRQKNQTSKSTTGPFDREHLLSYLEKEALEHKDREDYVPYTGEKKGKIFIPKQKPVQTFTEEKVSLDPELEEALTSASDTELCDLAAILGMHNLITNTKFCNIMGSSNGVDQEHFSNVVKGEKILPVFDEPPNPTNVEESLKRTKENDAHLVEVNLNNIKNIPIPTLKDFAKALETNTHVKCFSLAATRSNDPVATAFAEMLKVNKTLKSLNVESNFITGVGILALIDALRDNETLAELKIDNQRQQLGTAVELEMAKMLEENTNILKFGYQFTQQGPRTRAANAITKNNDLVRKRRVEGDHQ
The conditions noted are these: 200 μM, insitu.

Test [3] addresses T3, cysteines in MDA-MB-231 and Ramos cells (Homo sapiens, UniProt Q9ULW0).
T3 sequence (Q9ULW0 1-747): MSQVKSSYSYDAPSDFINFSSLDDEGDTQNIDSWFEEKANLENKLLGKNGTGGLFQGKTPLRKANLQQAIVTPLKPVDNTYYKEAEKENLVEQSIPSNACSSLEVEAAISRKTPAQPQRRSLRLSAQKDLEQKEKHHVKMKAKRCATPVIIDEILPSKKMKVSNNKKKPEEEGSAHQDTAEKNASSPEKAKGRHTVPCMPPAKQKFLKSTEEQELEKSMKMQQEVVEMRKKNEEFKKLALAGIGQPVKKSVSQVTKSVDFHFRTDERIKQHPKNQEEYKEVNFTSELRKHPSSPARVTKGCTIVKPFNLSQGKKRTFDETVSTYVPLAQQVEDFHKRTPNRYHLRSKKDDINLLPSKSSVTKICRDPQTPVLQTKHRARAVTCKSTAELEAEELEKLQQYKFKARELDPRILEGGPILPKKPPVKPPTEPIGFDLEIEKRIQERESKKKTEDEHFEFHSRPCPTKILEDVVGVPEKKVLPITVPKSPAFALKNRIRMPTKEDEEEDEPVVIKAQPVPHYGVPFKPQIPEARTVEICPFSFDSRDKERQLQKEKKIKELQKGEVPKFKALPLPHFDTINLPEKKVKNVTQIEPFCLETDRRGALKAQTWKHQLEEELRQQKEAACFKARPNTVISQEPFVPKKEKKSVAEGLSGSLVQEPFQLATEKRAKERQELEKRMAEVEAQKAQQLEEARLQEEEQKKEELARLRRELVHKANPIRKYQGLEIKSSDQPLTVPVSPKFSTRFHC
The conditions noted are these: 200 μM, insitu.

The target in test [4] is T4, cysteines in MDA-MB-231 and Ramos cells (Homo sapiens, UniProt P51946).
T4 sequence (P51946 1-323): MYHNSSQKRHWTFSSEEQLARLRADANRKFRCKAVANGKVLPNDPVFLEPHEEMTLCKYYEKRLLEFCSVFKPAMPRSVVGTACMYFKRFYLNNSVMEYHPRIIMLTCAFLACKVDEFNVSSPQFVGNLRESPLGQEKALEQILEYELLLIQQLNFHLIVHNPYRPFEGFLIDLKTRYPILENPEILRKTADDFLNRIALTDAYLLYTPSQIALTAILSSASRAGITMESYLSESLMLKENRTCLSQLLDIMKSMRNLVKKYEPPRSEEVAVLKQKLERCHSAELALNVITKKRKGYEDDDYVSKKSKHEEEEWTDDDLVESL
Particulars: 200 μM, insitu.

Test [5] addresses T5, cysteines in MDA-MB-231 and Ramos cells (Homo sapiens, UniProt Q9BRA2).
T5 sequence (Q9BRA2 1-123): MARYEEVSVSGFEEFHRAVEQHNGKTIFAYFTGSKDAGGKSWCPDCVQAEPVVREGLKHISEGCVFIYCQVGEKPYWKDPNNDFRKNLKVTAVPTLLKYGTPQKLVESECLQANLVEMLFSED
The conditions noted are these: 200 μM, insitu.

The target in test [6] is cysteines in MDA-MB-231 and Ramos cells (Homo sapiens, UniProt P38606). Particulars: 200 μM, insitu.
Test [7] has as its target T6, cysteines in MDA-MB-231 and Ramos cells (Homo sapiens, UniProt Q13162).
T6 sequence (Q13162 38-271): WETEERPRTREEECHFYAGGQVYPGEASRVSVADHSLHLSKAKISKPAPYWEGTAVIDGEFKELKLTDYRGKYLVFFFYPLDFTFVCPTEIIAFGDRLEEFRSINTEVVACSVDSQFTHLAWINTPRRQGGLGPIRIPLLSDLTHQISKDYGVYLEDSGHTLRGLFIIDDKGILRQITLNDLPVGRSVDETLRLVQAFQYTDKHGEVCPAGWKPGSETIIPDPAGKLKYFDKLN
Particulars: 200 μM, insitu.

The target in test [8] is T7, cysteines in MDA-MB-231 and Ramos cells (Homo sapiens, UniProt P46734).
T7 sequence (P46734 1-347): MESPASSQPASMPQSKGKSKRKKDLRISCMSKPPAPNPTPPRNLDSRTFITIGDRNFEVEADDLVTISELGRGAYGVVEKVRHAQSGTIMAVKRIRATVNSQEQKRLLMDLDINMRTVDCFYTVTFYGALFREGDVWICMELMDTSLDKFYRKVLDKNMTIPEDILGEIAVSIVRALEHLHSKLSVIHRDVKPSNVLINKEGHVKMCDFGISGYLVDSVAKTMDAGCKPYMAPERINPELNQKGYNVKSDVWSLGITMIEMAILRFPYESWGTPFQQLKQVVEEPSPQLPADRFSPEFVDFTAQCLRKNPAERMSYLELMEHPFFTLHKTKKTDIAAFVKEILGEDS
The conditions noted are these: 200 μM, insitu, 231.

Chain of cysteines in MDA-MB-231 and Ramos cells (Homo sapiens, UniProt P38606) (P38606 whole entry): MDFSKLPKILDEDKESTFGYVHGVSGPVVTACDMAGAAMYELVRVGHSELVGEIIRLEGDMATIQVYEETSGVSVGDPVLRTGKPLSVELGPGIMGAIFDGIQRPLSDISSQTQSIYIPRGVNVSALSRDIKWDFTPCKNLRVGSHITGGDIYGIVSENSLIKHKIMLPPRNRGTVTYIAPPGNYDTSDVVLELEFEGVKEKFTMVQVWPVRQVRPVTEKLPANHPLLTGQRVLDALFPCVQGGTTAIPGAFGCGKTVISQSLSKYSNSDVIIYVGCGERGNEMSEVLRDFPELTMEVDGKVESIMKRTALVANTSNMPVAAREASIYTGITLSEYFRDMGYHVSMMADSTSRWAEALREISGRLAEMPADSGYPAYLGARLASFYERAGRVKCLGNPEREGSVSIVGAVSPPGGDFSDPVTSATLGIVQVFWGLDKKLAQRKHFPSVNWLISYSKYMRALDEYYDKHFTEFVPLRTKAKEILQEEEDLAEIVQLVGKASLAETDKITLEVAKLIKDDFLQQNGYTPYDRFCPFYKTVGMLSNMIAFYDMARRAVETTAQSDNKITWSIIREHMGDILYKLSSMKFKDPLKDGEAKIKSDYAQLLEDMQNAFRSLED

Take `COc1ccccc1OCCNC(=O)CCl` [compound 28]: in test [1], the “isoTOP-ABPP ratio O14879_C343” value was 0.7. In test [2] (231), the “isoTOP-ABPP ratio Q9NYL9_C132” value was found to be 0.7. Moreover, in test [3] (231), the “isoTOP-ABPP ratio Q9ULW0_C536” value was found to be 1.0.
In the case of `O=C(CCl)N1CCN(CC(=O)N2CCOCC2)CC1` [compound 29], the “isoTOP-ABPP ratio P51946_C244” value in test [4] (ramos) is listed as 1.1. For the same compound, the “isoTOP-ABPP ratio Q9BRA2_C43” value in test [5] (ramos) is reported as 2.3. For the same compound, in test [2] (ramos), the “isoTOP-ABPP ratio Q9NYL9_C132” value is reported as 0.9. The “isoTOP-ABPP ratio Q9ULW0_C536” value in test [3] (ramos) is 1.8.
With `C=CC(=O)N(Cc1cccnc1)c1cc(C(F)(F)F)cc(C(F)(F)F)c1` [compound 31], in test [1], the “isoTOP-ABPP ratio O14879_C343” value was 0.9. For the same compound, in test [6] (ramos), the “isoTOP-ABPP ratio P38606_C138” value is reported as 1.7. Further, in test [7] (ramos), the “isoTOP-ABPP ratio Q13162_C51” value was found to be 1.3. Further, in test [5] (231), the “isoTOP-ABPP ratio Q9BRA2_C43” value turned out to be 0.6. Further, the “isoTOP-ABPP ratio Q9NYL9_C132” value in test [2] (231) and in test [2] (ramos) was 0.7 throughout.
With `C=CC(=O)Nc1cc(F)c(N2CCN(C(=O)OC(C)(C)C)CC2)c(F)c1` [compound 38], the “isoTOP-ABPP ratio P38606_C138” value in test [6] (231) is listed as 2.1. Moreover, in test [8], the “isoTOP-ABPP ratio P46734_C207” value was 1.5. For the same compound, the “isoTOP-ABPP ratio P51946_C244” value in test [4] (231) came to 1.0. In addition, in test [7] (231), the “isoTOP-ABPP ratio Q13162_C51” value is recorded as 2.4. In test [5] (231), the “isoTOP-ABPP ratio Q9BRA2_C43” value was 1.1. For the same compound, the “isoTOP-ABPP ratio Q9NYL9_C132” value in test [2] (231) came out at 2.6. In test [3] (231), the “isoTOP-ABPP ratio Q9ULW0_C536” value is recorded as 1.2.
With `Cc1ccc(C=C(C#N)C(=O)NCCN2CCOCC2)cc1` [compound 41], the “isoTOP-ABPP ratio O14879_C343” value in test [1] is 0.3. In addition, the “isoTOP-ABPP ratio P38606_C138” value in test [6] (231) is recorded as 0.8. The “isoTOP-ABPP ratio P46734_C207” value in test [8] stood at 0.7. For the same compound, the “isoTOP-ABPP ratio P51946_C244” value in test [4] (231) stood at 1.2. In addition, the “isoTOP-ABPP ratio Q9BRA2_C43” value in test [5] (231) worked out at 0.6. For the same compound, the “isoTOP-ABPP ratio Q9NYL9_C132” value in test [2] (231) is 0.3. Moreover, the “isoTOP-ABPP ratio Q9ULW0_C536” value in test [3] (231) is 1.2.
Regarding `CC1CCc2ccccc2N1C(=O)CCl` (stereo not shown) [compound 45], the “isoTOP-ABPP ratio O14879_C343” value in test [1] amounted to 4.0. For the same compound, the “isoTOP-ABPP ratio P46734_C207” value in test [8] was 1.5. For the same compound, in test [4] (231), the “isoTOP-ABPP ratio P51946_C244” value is given as 2.4. Moreover, in test [7] (231), the “isoTOP-ABPP ratio Q13162_C51” value came to 2.3. Besides, the “isoTOP-ABPP ratio Q9BRA2_C43” value in test [5] (231) is reported as 8.0. Besides, the “isoTOP-ABPP ratio Q9NYL9_C132” value in test [2] (231) amounted to 0.9. The “isoTOP-ABPP ratio Q9ULW0_C536” value in test [3] (231) turned out to be 20.0.
With `O=C(CCl)Nc1cccc2ncccc12` [compound 51], the “isoTOP-ABPP ratio O14879_C343” value in test [1] is listed as 1.3. The “isoTOP-ABPP ratio P38606_C138” value in test [6] (231) stood at 10.6. In addition, in test [8], the “isoTOP-ABPP ratio P46734_C207” value worked out at 0.7. The “isoTOP-ABPP ratio P51946_C244” value in test [4] (231) is on record as 0.7. The “isoTOP-ABPP ratio Q9NYL9_C132” value in test [2] (231) was 0.8. The “isoTOP-ABPP ratio Q9ULW0_C536” value in test [3] (231) amounted to 1.4.
